Measured values published in patent US20230203098A1, “HUMAN TRANSFERRIN RECEPTOR BINDING PEPTIDE” (priority 2020, published 2023).
*1 amine or outer side, *2 acyl side, *3 side chain or, on linkers, in order; H or OH if unused. Where a SMILES comes first, the peptide text is derived from it. Bridges are numbered along the chain shown (N, C = ends). Primed or numbered codes have the meaning given here. Where no end group is shown, it is not given here. [ ]: non-standard residue; d: D form. The star is where a group is joined. ξ: configuration not given here. X6 = CC(C)[C@H](CC(=O)[C@H](Cc1ccccc1)N(C)[*:1])C(=O)[*:2]; X2 = O=C(O)c1cc(C(=O)*)ccc1-c1c2ccc(=O)cc-2oc2cc(O)ccc12; Tyr(Me) = COc1ccc(C[C@H](N[*:1])C(=O)[*:2])cc1; NMePhe(3-Cl) = CN[C@@H](Cc1cccc(Cl)c1)C(=O)O; NMeW = CN[C@@H](Cc1c[nH]c2ccccc12)C(=O)O; NMeY = CN[C@@H](Cc1ccc(O)cc1)C(=O)O; PEG4 = NCCOCCOCCOCCOCCC(=O)O; PEG11′ = not defined here; Aib = CC(C)(N)C(=O)O; ξC = NC(CS)C(=O)O

What was measured:
[1] = system: hTfR-KI mice; assay: Mouse brain localization confirmation test with FITC conjugate (immunohistochemical staining, single and multiple dose); assay type: in vivo; details: multiple dose test, 3.7 mg/kg every 10 minutes, 6 times
Method: In the same manner as in Example 5, the conjugate of the hTfR-binding special cyclic peptide No. 894 and the fluorescent substance FITC was administered to the hTfR-KI mice. The dose was adjusted to 3.7 mg/kg.
One hour after administration, the mice were anesthetized with isoflurane and subjected to a blood removal treatment by running normal saline from the left ventricle for 4 to 5 minutes. After that, the brain was collected for measuring the fluorescence intensity and stored in normal saline to prevent drying. This brain tissue was subjected to immunohistochemical staining using an anti-FITC antibody (MBL Life Science). The immunohistochemical staining in the brain tissue using the anti-FITC antibody was performed with a publicly known method and the staining was observed using a fluorescence microscope. Note that in the figure, red arrows indicate the cerebral capillaries and arrowheads indicate the Purkinje cells.
The localization of the above-mentioned conjugate in the brain tissue was confirmed by the immunohistochemical staining. Note that, in the figure, red arrows indicate the cerebral capillaries, arrowheads indicate the Purkinje cells, and yellow arrows indicate dendrites.

[2] = system: Human breast cancer cells BT-549; assay: Migration of 5-FAM peptide conjugates into human breast cancer cells BT-549 (fluorescence microscopy); assay type: cell-based; details: BT-549 cells, sample diluted to 100 nmol/L, 37° C., 3 hours
Method: Culturing was performed under conditions of 37° C. and 5% CO2.
Collagen Type I (Corning) was diluted to 50 µg/mL with 20 mmol/L acetic acid. A sterilized cover glass was placed in each well of the 24-well plate. After the diluted Collagen Type I solution was added to the plate, the plate was incubated at 37° C. for 1 hour. The Collagen Type I solution was removed from the plate and the plate was washed 3 times with PBS. The human breast cancer cells BT-549 were inoculated in an amount of 1 × 10^5 cells per 1 well and cultured overnight under conditions of 37° C. and 5% CO2.
The sample was diluted with the dilution medium to 100 nmol/L.
The sample solution was removed from the 24-well plate, and the BT-549 cells were washed three times with PBS. 4% paraformaldehyde phosphate buffer (FUJIFILM Wako Pure Chemical Corporation) was added at 500 µL/well, and the cells were allowed to stand at room temperature for 15 minutes and then washed three times with PBS. Further, Hoechst 33342 (Thermo Fisher Scientific) diluted with PBS to 2 µg/mL was added at 500 µL/well, and the cells were allowed to stand at room temperature under shading for 10 minutes and then washed three times with PBS. The cover glass was removed from the 24-well plate, and the cells were enclosed on a slide glass using fluorescent mounting medium (Agilent Technologies) and allowed to stand at room temperature under shading overnight. For the observation, an inverted fluorescence microscope DMI6000B (Leica Microsystems) was used, and the observation was performed at the wavelength for detecting FITC and DAPI. The scale bar in the figures indicates 50 µm.

[3] = biological target: transferrin receptor (hTfR) (Homo sapiens, UniProt P02786); assay: Intermolecular interaction evaluation test between transferrin receptor (hTfR) and peptide by surface plasmon resonance (SPR); assay type: binding; details: SPR; for hTfR binding ability: result in words
Sequence of transferrin receptor (hTfR) (P02786 whole entry): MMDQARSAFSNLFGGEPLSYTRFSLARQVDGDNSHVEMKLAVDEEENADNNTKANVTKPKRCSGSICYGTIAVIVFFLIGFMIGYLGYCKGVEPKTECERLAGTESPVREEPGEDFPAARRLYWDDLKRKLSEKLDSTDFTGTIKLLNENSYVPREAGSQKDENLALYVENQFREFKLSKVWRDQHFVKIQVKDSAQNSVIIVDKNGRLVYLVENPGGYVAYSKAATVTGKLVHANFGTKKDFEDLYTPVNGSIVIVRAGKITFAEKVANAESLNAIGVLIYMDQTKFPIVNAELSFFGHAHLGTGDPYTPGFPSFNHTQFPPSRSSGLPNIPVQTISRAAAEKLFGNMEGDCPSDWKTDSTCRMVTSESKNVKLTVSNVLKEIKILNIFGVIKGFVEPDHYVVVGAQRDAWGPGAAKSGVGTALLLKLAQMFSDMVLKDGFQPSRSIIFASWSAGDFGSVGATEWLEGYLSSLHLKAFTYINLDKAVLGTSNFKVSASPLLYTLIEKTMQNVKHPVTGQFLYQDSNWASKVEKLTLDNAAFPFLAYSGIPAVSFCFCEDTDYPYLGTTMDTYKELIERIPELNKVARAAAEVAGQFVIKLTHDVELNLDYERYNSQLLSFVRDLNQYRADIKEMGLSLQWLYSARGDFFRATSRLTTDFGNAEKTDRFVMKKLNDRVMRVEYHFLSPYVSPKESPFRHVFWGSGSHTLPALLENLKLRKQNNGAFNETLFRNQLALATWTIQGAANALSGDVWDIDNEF
Summary of the method: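 Receptor was Ni-captured and EDC/NHS-fixed on an NTA chip; running buffer HEPES pH 8.0 with NaCl, Tween 20, BSA and 1.0% DMSO.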

[4] = system: TfR-KI mice; details: mouse, in vivo
Method: hTfRNo.894-vivotag750 conjugate administration liquid (No. 894 administration liquid) : 4.8 µL of dimethyl sulfoxide (DMSO, Sigma Aldrich) was added to 6 µL of a 5 mM solution of the hTfRNo.894-vivotag750 conjugate synthesized in Example 2, 66 µL of the 20% hydroxypropyl-β-cyclodextrin solution was further added, and the mixture was mixed well. To this, 48 µL of polyethylene glycol 400 was further added and mixed to prepare a No. 894-administration liquid. […] The offspring (chimeric mice) thus obtained were determined by hair color, and individuals in which the ES cells contributed to the development of the organism at a higher rate, that is, individuals having a higher proportion of white hairs relative to their total body hairs, were selected. […] White-colored F1 mice were selected, DNA was extracted from their tail tissues and analyzed, and the mice in which the mouse transferrin receptor gene on the chromosome had been heterologously replaced with the chimeric hTfR were selected as the TfR-KI mice. […] After this, tissues for measuring fluorescence intensity (brain, heart, lung, liver, spleen, kidney, quadriceps femoris muscle, thymus, thoracic vertebrae, and femur) were collected and stored in normal saline to prevent drying. […]

CC[C@H](C)[C@@H]1NC(=O)[C@H](Cc2ccc(O)cc2)NC(=O)[C@H](Cc2ccc(O)cc2)NC(=O)[C@H](CC(N)=O)NC(=O)[C@H](Cc2c[nH]c3ccccc23)NC(=O)[C@H](C(C)C)NC(=O)[C@H](Cc2ccccc2)NC(=O)[C@H](C(C)C)NC(=O)[C@H](C)NC(=O)CSC[C@@H](C(=O)NCCOCCOCCOCCOCCOCCOCCOCCOCCOCCOCCOCCOCCC(=O)N[C@@H](CCCCNC(=O)c2ccc(-c3c4ccc(=O)cc-4oc4cc(O)ccc34)c(C(=O)O)c2)C(N)=O)NC(=O)[C@H](Cc2ccc(O)cc2)N(C)C(=O)[C@H](Cc2ccc(O)cc2)NC(=O)[C@H](CCCNC(=N)N)NC(=O)[C@H](CCCNC(=N)N)NC(=O)[C@H]([C@@H](C)CC)NC1=O
localization in the brain tissue [1]: reached as far as neurons such as the Purkinje cells

CC[C@H](C)[C@@H]1NC(=O)[C@H](Cc2ccc(O)cc2)NC(=O)[C@H](Cc2ccc(O)cc2)NC(=O)[C@H](CC(N)=O)NC(=O)[C@H](Cc2c[nH]c3ccccc23)NC(=O)[C@H](C(C)C)CC(=O)[C@H](Cc2ccccc2)N(C)C(=O)[C@H](C(C)C)NC(=O)[C@H](C)NC(=O)CSCC(C(=O)NCCOCCOCCOCCOCCC(=O)N[C@H](CCCCNC(=O)c2ccc(-c3c4ccc(=O)cc-4oc4cc(O)ccc34)c(C(=O)O)c2)C(N)=O)NC(=O)[C@H](Cc2ccc(O)cc2)N(C)C(=O)[C@H](Cc2ccc(O)cc2)NC(=O)[C@H](CCCNC(=N)N)NC(=O)[C@H](CCCNC(=N)N)NC(=O)[C@H]([C@@H](C)CC)NC1=O (stereo partly shown) [Patent ID 446] ({CH2CO}-AV[X6]WNYYIIRRY[NMeY][ξC][PEG4][dK](X2)-NH2; thioether N-14)
migration into the cells [2]: into the cells was confirmed

CC[C@H](C)[C@@H]1NC(=O)[C@H](Cc2ccc(O)cc2)NC(=O)[C@H](Cc2ccc(O)cc2)NC(=O)[C@H](CC(N)=O)NC(=O)[C@H](Cc2c[nH]c3ccccc23)NC(=O)[C@H](C(C)C)NC(=O)[C@H](Cc2ccccc2)N(C)C(=O)[C@H](C(C)C)NC(=O)[C@H](C)NC(=O)CSC[C@@H](C(=O)NCC(=O)N[C@@H](CCCCN)C(N)=O)NC(=O)[C@H](Cc2ccc(O)cc2)N(C)C(=O)[C@H](Cc2ccc(O)cc2)NC(=O)[C@H](CCCNC(=N)N)NC(=O)[C@H](CCCCN)NC(=O)[C@H]([C@@H](C)CC)NC1=O [compound 526]
Kd ([3]; hTfR, class symbols A-D, read-out: KD (column without head, continuation of the table series)): 1 to 100 nM

CC[C@H](C)[C@@H]1NC(=O)[C@H](Cc2ccc(O)cc2)NC(=O)[C@H](Cc2ccc(O)cc2)NC(=O)[C@H](CC(N)=O)NC(=O)[C@H](Cc2c[nH]c3ccccc23)NC(=O)[C@H](C(C)C)NC(=O)[C@H](Cc2ccccc2)NC(=O)[C@H](C(C)C)NC(=O)[C@H](C)NC(=O)CSC[C@@H](C(N)=O)NC(=O)[C@H](Cc2ccc(O)cc2)N(C)C(=O)[C@H](Cc2ccc(O)cc2)NC(=O)[C@H](CCCNC(=N)N)NC(=O)[C@H](CCCNC(=N)N)NC(=O)[C@H]([C@@H](C)CC)NC1=O [hTfR No. 894]
migration into the brain through the BBB [4]: migrated into the brain through the BBB | migration to tissues [4]: also migrated to each tissue, mainly muscle tissues

Patent ID 447: 5-FAM labelled conjugate of hTfR_894_variant61_PEG4 (AVXVWNYXIIXXFYC; not fully specified; PEG4 linker, 5-FAM label; (3)..(3) Xaa is MeF3C; MOD_RES (5)..(5) …ON; (8)..(8) Xaa is F4OMe; (11)..(11) Xaa is Aib; (12)..(12) Xaa is dr; MOD_RES (14)..(14) …ON)
migration into the cells [2]: into the cells was confirmed

Patent ID 448: 5-FAM labelled conjugate of hTfR_894_variant03_PEG4 (AVXVWNYXIIRXFYC; not fully specified; PEG4 linker, 5-FAM label; (3)..(3) Xaa is MeF3C; MOD_RES (5)..(5) …ON; (8)..(8) Xaa is F4OMe; (12)..(12) Xaa is dr; MOD_RES (14)..(14) …ON)
migration into the cells [2]: into the cells was confirmed

Patent ID 449: negative control, 5-FAM labelled conjugate of Flip894_variant61_PEG4, a peptide without binding ability to hTfR ({CH2CO}-A[NMeY]F[dR][Aib]IY[Tyr(Me)]YN[NMeW]V[NMePhe(3-Cl)]VC; thioether N-15; not fully specified (C-terminus); also: methylation at Y2 and W11, type not given here) [reference compound]
hTfR binding ability [3]: no binding to hTfR was observed | migration into the cells [2]: did not migrate into the cells

hTfRNo.894FLIP-vivotag750: control: cyclic peptide with inverted No. 894 sequence (SEQ ID NO: 202) bound to VivoTag 750 via PEG11 linker ({CH2CO}-A[NMeY]YRRIIYYNWVFVC-{PEG11′-VivoTag750}; thioether N-15 (inferred); not fully specified; printed as ClAc-Ala-MeTyr-Tyr-Arg-Arg-Ile-Ile-Tyr-Tyr-Asn-Trp-Val-Phe-Val-Cys) [reference compound]
hTfR binding ability [3]: no binding to hTfR was recognized
